Active and inactive are the calls of the source.
Experiments:
Mus musculus [1] = species: Mus musculus; assay: Toxicity in the P388 NCI screen defined as the dose that caused an average wt. loss>3g in at least one out of set of mice or the death of one or more of mice; type: organism-based; settings: in vivo
Mus musculus [2] = species: Mus musculus; assay: Toxicity in the P388 NCI screen in second assay.; type: organism-based; settings: in vivo
Mus musculus [3] = assay: Toxicity found after a single intramuscular injection in mice; settings: in vivo, im
[4] = test system: Tubulin (Rattus norvegicus); settings: Brain, at 25 µM
P388 [5] = assay: Potency against lymphocytic leukemia P388 screen in mice.; type: functional, Mus musculus
P388 [6] = assay: Potency against lymphocytic leukemia P388 screen in mice; inactive; type: functional, cell-based; settings: Mus musculus

With `CCOC(=O)N[C@H]1CCc2cc(OC)c(OC)c(OC)c2-c2ccc(OC)c(=O)cc21` the Toxicity (Mus musculus [1]) was 11.7 µM/kg and the Toxicity (Mus musculus [2]) was 1.5 µM/kg.
With `COc1cc2c(c(OC)c1OC)-c1ccc(OC)c(=O)cc1[C@@H](NC(=O)C(C)(C)C)CC2` the Toxicity (Mus musculus [3]) was 9.3 µM/kg.
`COc1cc2c(c(OC)c1OC)-c1ccc(OC)c(=O)cc1[C@@H](NC(=O)/C=C(\C)C=C=C(C)/C=C/C1=C(C)CCCC1(C)C)CC2` gave a Binding [4] of 41%.
`CCCC(=O)N[C@H]1CCc2cc(OC)c(OC)c(OC)c2-c2ccc(OC)c(=O)cc21` was tested, and the Toxicity (Mus musculus [3]) was 5.8 µM/kg, the Toxicity (Mus musculus [1]) was 5.8 µM/kg and the Potency (P388 [5]) was 0.7 µM/kg.
`COc1c(O)c(O)cc2c1-c1ccc(OC)c(=O)cc1[C@@H](NC(C)=O)CC2` was tested, and the Toxicity (Mus musculus [3]) was > 450 µM/kg, the Toxicity (Mus musculus [1]) was 54 µM/kg and the Potency (P388 [5]) was 20 µM/kg.
Work on `COc1cc2c(c(OC)c1OC)-c1ccc(OC)c(=O)cc1[C@@H](N(C)C(=O)CO)CC2` yielded a Toxicity (Mus musculus [3]) of 14.5 µM/kg, a Toxicity (Mus musculus [1]) of 2.9 µM/kg and a Potency (P388 [5]) of 0.6 µM/kg. It also gave a Binding [4] of 99%.
`CCOCC(=O)N[C@H]1CCc2cc(OC)c(OC)c(OC)c2-c2ccc(OC)c(=O)cc21` was tested, and the Toxicity (Mus musculus [3]) was 9 µM/kg, the Toxicity (Mus musculus [1]) was 2.8 µM/kg and the Potency (P388 [5]) was 0.4 µM/kg.
Work on `COc1cc2c(c(OC)c1OC)-c1ccc(OC)c(=O)cc1[C@@H](NC(=O)c1ccccc1)CC2` yielded a Toxicity (Mus musculus [3]) of 60.5 µM/kg, a Toxicity (Mus musculus [1]) of 4.3 µM/kg and a Potency (P388 [5]) of 1 µM/kg.
For `COc1cc(C(=O)N[C@H]2CCc3cc(OC)c(OC)c(OC)c3-c3ccc(OC)c(=O)cc32)cc(OC)c1OC`, the Toxicity (Mus musculus [3]) was > 180 µM/kg, the Toxicity (Mus musculus [1]) was 72.6 µM/kg and the Potency (P388 [5]) was 14 µM/kg.
For `COc1cc2c(c(OC)c1OC)-c1ccc(=O)c(OC)cc1[C@@H](NC(=O)CO)CC2`, the Binding [4] was 0%.
In the case of `COc1cc2c(c(OC)c1OC)-c1ccc(OC)c(=O)cc1[C@@H](NC(C)=O)CC2` [COLCHICINE], the Toxicity (Mus musculus [3]) is reported as 3 µM/kg, the Toxicity (Mus musculus [1]) is reported as 2.5 µM/kg and the Potency (P388 [5]) is reported as 0.4 µM/kg.
In the case of `COc1cc2c(c(OC)c1OC)-c1ccc(OC)c(=O)cc1[C@@H](NC(=O)CO)CC2` [COLCHIFOLINE], the Toxicity (Mus musculus [3]) is reported as 3.9 µM/kg, the Toxicity (Mus musculus [1]) is reported as 3 µM/kg and the Potency (P388 [5]) is reported as 0.7 µM/kg.
`COc1cc(/C=C/C(=O)N[C@H]2CCc3cc(OC)c(OC)c(OC)c3-c3ccc(OC)c(=O)cc32)cc(OC)c1O` showed a Binding [4] of 69%.
Compound `COc1cc2c(c(OC)c1OC)-c1ccc(OC)c(=O)cc1[C@@H](NC(=O)COc1ccccc1)CC2` has a Toxicity (Mus musculus [3]) of 61.3 µM/kg, a Toxicity (Mus musculus [1]) of 5.1 µM/kg and a Potency (P388 [5]) of 1.3 µM/kg.
For `CCC(=O)N[C@H]1CCc2cc(OC)c(OC)c(OC)c2-c2ccc(=O)c(OC)cc21`, the Binding [4] was 10%.
For `COc1cc2c(c3c1OCO3)-c1ccc(OC)c(=O)cc1[C@@H](NC(C)=O)CC2`, the Toxicity (Mus musculus [3]) was > 167 µM/kg, the Toxicity (Mus musculus [1]) was 104 µM/kg and the Potency (P388 [6]) was “inactive”.
In the case of `COc1c2c(cc3c1-c1ccc(OC)c(=O)cc1[C@@H](NC(C)=O)CC3)OCO2`, the Toxicity (Mus musculus [3]) is reported as 9.7 µM/kg, the Toxicity (Mus musculus [1]) is reported as 39.1 µM/kg and the Potency (P388 [5]) is reported as <10 µM/kg.
With `COc1c(Oc2nnnn2-c2ccccc2)cc2c(c1OC)-c1ccc(OC)c(=O)cc1[C@@H](NC(C)=O)CC2` the Binding [4] was 27%.
`COc1cc2c(c(OC)c1OC)-c1cccc(=O)cc1[C@@H](NC(C)=O)CC2` [CHOLCHICIDE] gave a Toxicity (Mus musculus [3]) of 168.9 µM/kg, a Toxicity (Mus musculus [1]) of 54.2 µM/kg and a Potency (P388 [5]) of 9.2 µM/kg.
`COc1cc2c(c(O)c1O)-c1ccc(OC)c(=O)cc1[C@@H](NC(C)=O)CC2` was tested, and the Toxicity (Mus musculus [3]) was > 450 µM/kg, the Toxicity (Mus musculus [1]) was > 320 µM/kg and the Potency (P388 [6]) was “inactive”.
With `CCC(=O)N[C@H]1CCc2cc(OC)c(OC)c(OC)c2-c2ccc(OC)c(=O)cc21` the Toxicity (Mus musculus [3]) was 8.2 µM/kg.
`COc1cc2c(c(OC)c1O)-c1ccc(OC)c(=O)cc1[C@@H](NC(=O)C(F)(F)F)CC2` gave a Toxicity (Mus musculus [3]) of 32.5 µM/kg, a Toxicity (Mus musculus [1]) of 23.5 µM/kg and a Potency (P388 [5]) of 3.8 µM/kg. It also gave a Binding [4] of 96%.
`COc1cc2c(c(OC)c1Oc1nnnn1-c1ccccc1)-c1ccc(OC)c(=O)cc1[C@@H](NC(C)=O)CC2` gave a Binding [4] of 52%.

— ChEMBL document CHEMBL1122450, “Biological effects of modified colchicines. 2. Evaluation of catecholic colchicines, colchifolines, colchicide, and novel N-acyl- and N-aroyldeacetylcolchicines” (J Med Chem, 1983)
